Data taken from US20250115594A1, “ANTIBACTERIAL AGENTS: SOLUBLE SALTS AND AQUEOUS FORMULATIONS OF PYRONINS” (priority 2018, published 2025).
In brackets after ≈: the same amount, converted by molar mass.

Legend:
[1] = biological target: E. coli RNA polymerase σ70 holoenzyme (Escherichia coli (strain K12), UniProt P0A8T7+P0A8V2); assay: Fluorescence-detected assay of inhibition of Escherichia coli RNA polymerase; assay type: biochemical; details: read-out: RNAP-inhibitory activity E. coli RNAP IC50
Procedure: (§1) Fluorescence-detected RNA polymerase assays with E. coli RNA polymerase were performed by a modification of the procedure of Kuhlman et al., 2004 [Kuhlman, P., Duff, H. & Galant, A. (2004) A fluorescence-based assay for multisubunit DNA-dependent RNA polymerases. Anal. Biochem. 324, 183-190]. Reaction mixtures contained (20 μl): 0-100 nM test salt, 75 nM E. coli RNA polymerase σ^70 holoenzyme, 20 nM 384 bp DNA fragment containing the bacteriophage T4 N25 promoter, 100 μM ATP, 100 μM GTP, 100 μM UTP, 100 μM CTP, 50 mM Tris-HCl, pH 8.0, 100 mM KCl, 10 mM MgCl2, 1 mM DTT, 10 μg/ml bovine serum albumin, and 5.5% glycerol. Reaction components other than DNA and NTPs were pre-incubated for 10 min at 37° C. Reactions were carried out by addition of DNA and incubation for 5 min at 37° C., followed by addition of NTPs and incubation for 60 min at 37° C. DNA was removed by addition of 1 μl 5 mM CaCl2 and 2 U DNaseI (Ambion, Inc.), followed by incubation for 90 min at 37° C. RNA was quantified by addition of 100 μl RiboGreen RNA Quantitation Reagent (Invitrogen, Inc.; 1:500 dilution in Tris-HCl, pH 8.0, 1 mM EDTA), followed by incubation for 10 min at 25° C., followed by measurement of fluorescence intensity [excitation wavelength=485 nm and emission wavelength=535 nm; QuantaMaster QM1 spectrofluorometer (PTI, Inc.)]. IC50 is defined as the concentration of inhibitor resulting in 50% inhibition of RNA polymerase activity.

[2] = test system: Staphylococcus aureus ATCC 12600; assay: Inhibition of bacterial growth, spiral gradient endpoint assay, S. aureus; assay type: cell-based; details: ATCC12600, read-out: in vitro antibacterial activity S. aureus ATCC12600 MIC
Excerpt: (§2) Minimum inhibitory concentrations (MICs) for Staphylococcus aureus ATCC 12600 and Escherichia coli D21f2tolC were quantified using spiral gradient endpoint assays, essentially as described [Wallace, A. and Corkill, J. (1989) Application of the spiral plating method to study antimicrobial action. J. Microbiol. Meths. 10, 303-310; Paton, J., Holt, A., and Bywater, M. (1990) Measurement of MICs of antibacterial agents by spiral gradient endpoint compared with conventional dilution methods. Int. J. Exp. Clin. Chemother. 3, 31-38; Schalkowsky S. (1994) Measures of susceptibility from a spiral gradient of drug concentrations. Adv. Exp. Med. Biol. 349, 107-120]. Assays employed exponential-gradient plates containing 150 mm×4 mm Mueller-Hinton II cation-adjusted agar and 0.4-100 μg/ml of test salt. Plates were prepared using an Autoplate 4000 spiral plater (Spiral Biotech, Inc.). Saturated overnight cultures were swabbed radially onto plates, and plates were incubated for 16 h at 37° C. For each culture, the streak length was measured using a clear plastic template (Spiral Biotech, Inc.), the test-salt concentration at the streak endpoint was calculated using the program SGE (Spiral Biotech, Inc.), and the MIC was defined as the calculated test-salt concentration at the streak endpoint.

[3] = test system: Escherichia coli D21f2tolC; assay: Inhibition of bacterial growth, spiral gradient endpoint assay, E. coli; assay type: cell-based; details: read-out: in vitro antibacterial activity E. coli D21f2tolC MIC
Excerpt: as §2

physchem [4] = assay type: physicochemical; details: for solubility at 2 h: 37 °C, pH 7.4, aqueous buffer, kinetic from dmso stock
Procedure: Serial dilutions of test articles were prepared in dimethyl sulfoxide at 100× the final concentration. Test article solutions and blanks were diluted 100× into phosphate-buffered saline (PBS; 0.01 M sodium phosphate, pH 7.4, 137 mM NaCl, and 3 mM KCl) in a 96-well plate and mixed. After 2 h at 37° C., the presence of precipitate was detected by turbidity (absorbance at 540 nm). An absorbance value of greater than “mean+3xSD of the blank” (after subtracting background) was considered an indication of turbidity. The solubility limit was reported as the highest tested concentration with no evidence of turbidity.

physchem [5] = assay type: physicochemical; details: for solubility: thermodynamic from solid
Procedure: Starting with 0.5-5 mg test compound in a glass vial at room temperature, successive cycles of addition of vehicle, vortexing 15 s, and inspection were performed until all test compound dissolved. Vehicles were: 0.01 M sodium phosphate (pH 7.4); 5% dextrose in 0.01 M sodium phosphate (pH 7.4); and 0.5% carboxymethylcellulose (CMC)/0.5% Tween-80 (pH 8.4).

[6] = biological target: M. tuberculosis RNA polymerase (Mycobacterium tuberculosis (strain ATCC 25618 / H37Rv), UniProt P9WGY7+P9WGY9); assay: Fluorescence-detected assay of inhibition of Mycobacterium tuberculosis RNA polymerase; assay type: biochemical; details: read-out: RNAP-inhibitory activity M. tuberculosis RNAP IC50
Procedure: as §1
(§3) Fluorescence-detected RNA polymerase assays with M. tuberculosis RNA polymerase were performed as in Example 17.1, using reaction mixtures containing (20 μl): 0-100 nM test salt, 75 nM M. tuberculosis RNA polymerase core enzyme, 300 nM M. tuberculosis σ^A, 20 nM 384 bp DNA fragment containing the bacteriophage T4 N25 promoter, 100 μM ATP, 100 μM GTP, 100 μM UTP, 100 μM CTP, 40 mM Tris-HCl, pH 8.0, 80 mM NaCl, 5 mM MgCl2, 2.5 mM DTT, and 12.7% glycerol. IC50 is defined as the concentration of inhibitor resulting in 50% inhibition of RNA polymerase activity.

S. aureus RNA polymerase = S. aureus RNA polymerase (Staphylococcus aureus (strain NCTC 8325 / PS 47), UniProt P47768+Q2G0N5); assay: Fluorescence-detected assay of inhibition of Staphylococcus aureus RNA polymerase; assay type: biochemical; details: read-out: RNAP-inhibitory activity S. aureus RNAP IC50
Procedure: as §1
as §3, with “S. aureus” for “M. tuberculosis”

[7] = test system: Mycobacterium tuberculosis H37Rv; assay: Inhibition of bacterial growth, microplate Alamar Blue assay, M. tuberculosis; assay type: cell-based; details: read-out: in vitro antibacterial activity M. tuberculosis H37Rv MIC
[8] = pH 8.4, aqueous with cosolvent or surfactant or cyclodextrin

Row | Structure (SMILES) | IC50 [1] [nM] | MIC [2] [µg/mL] | MIC [3] [µg/mL] | times more soluble than the corresponding free acid (Example 8) (physchem [4]) [times] | solubility at 2 h (physchem [4]) [µg/mL] | concentration at which it can be formulated (physchem [5]) [µg/mL] | solubility (physchem [5]; pH 7.4, aqueous buffer) [µg/mL] | solubility (physchem [5]; pH 7.4, saline or isotonic) [µg/mL] | solubility (physchem [5]; [8]) [µg/mL] | IC50 [6] [nM] | IC50 (S. aureus RNA polymerase) [nM] | MIC [7] [µg/mL]
1 | [2H]C([2H])([2H])OC(=O)N/C=C/CCCc1cc([O-])c(C(=O)/C(C)=C/c2cnc(Oc3ccc(F)cc3)s2)c(=O)o1.[K+] [Example 10] | 6 | 0.2 | 0.03 | – | – | – | – | – | – | – | – | –
2 | [2H]C([2H])([2H])OC(=O)N/C=C/CCCc1cc([O-])c(C(=O)/C(C)=C/c2cnc(Oc3ccc(F)cc3)s2)c(=O)o1.[Na+] [Example 9] | – | 0.4 | 0.04 | ≥ 50 | ≥ 5000 | ≥ 10000 | 10000 | 5000 | 20000 | 30 | 30 | 0.4
3 | [2H]C([2H])([2H])OC(=O)N/C=C/CCCc1cc([O-])c(C(=O)/C(C)=C/c2cnc(Oc3ccc(-c4ccccc4)cc3)s2)c(=O)o1.[Na+] [Example 14] | 50 | > 8 | 0.03 | – | – | – | – | – | – | > 6000 | 30 | > 50
4 | [2H]C([2H])([2H])OC(=O)N/C=C/CCCc1cc(O)c(C(=O)/C(C)=C/c2cnc(Oc3ccc(F)cc3)s2)c(=O)o1 [Example 8] | 4 | 0.3 (≈ 0.58 µM) | 0.06 (≈ 0.116 µM) | – | 100 (≈ 193 µM) | – | < 100 | < 100 | < 100 | 20 | 60 | 0.8 (≈ 1.55 µM)
5 | [2H]C([2H])([2H])OC(=O)N/C=C/CCCc1cc([O-])c(C(=O)/C(C)=C/c2cnc(Oc3ccc(F)c(Cl)c3)s2)c(=O)o1.[Na+] [Example 12] | – | 0.2 | 0.03 | – | – | – | – | – | – | 30 | 3 | 0.8
6 | [2H]C([2H])([2H])OC(=O)N/C=C/CCCc1cc(O)c(C(=O)/C(C)=C/c2cnc(Oc3ccc(-c4ccccc4)cc3)s2)c(=O)o1 [Example 13] | 20 | > 8 | 0.03 (≈ 0.0521 µM) | – | – | – | – | – | – | > 6000 | 10 | > 50
7 | [2H]C([2H])([2H])OC(=O)N/C=C/CCCc1cc(O)c(C(=O)/C(C)=C/c2cnc(Oc3ccc(F)c(Cl)c3)s2)c(=O)o1 [Example 11] | 3 | 0.2 (≈ 0.362 µM) | 0.02 (≈ 0.0362 µM) | – | – | – | – | – | – | 30 | 1 | 0.8 (≈ 1.45 µM)
